Measured values as given in ChEMBL document CHEMBL1135443, “Acyclic nucleoside analogues as novel inhibitors of human mitochondrial thymidine kinase” (J Med Chem, 2002).

Tests used:
[1] = target: Thymidine kinase 2, mitochondrial (Homo sapiens) (UniProt O00142)
[2] = system: Thymidine kinase (Herpes simplex virus type 1); settings: Human alphaherpesvirus 1

Sequence of Thymidine kinase 2, mitochondrial (Homo sapiens) (O00142 whole entry, looked up): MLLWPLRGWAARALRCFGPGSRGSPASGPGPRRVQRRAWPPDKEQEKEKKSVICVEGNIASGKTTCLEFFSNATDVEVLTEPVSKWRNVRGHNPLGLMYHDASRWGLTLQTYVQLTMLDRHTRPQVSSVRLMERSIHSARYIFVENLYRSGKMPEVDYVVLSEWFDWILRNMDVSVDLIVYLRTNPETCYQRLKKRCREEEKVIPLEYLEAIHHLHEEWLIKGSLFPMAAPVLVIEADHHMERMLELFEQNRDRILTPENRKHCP

NEA [1]	NEA [2]	SMILES
Not estimated accurately	Not estimated accurately	Cc1cn(C/C=C\CO)c(=O)[nH]c1=O
Not estimated accurately	Not estimated accurately	Nc1nc(O)c2ncn(C/C=C\COC(c3ccccc3)(c3ccccc3)c3ccccc3)c2n1
Not estimated accurately	–	COc1ccc(C(OC[C@H]2O[C@@H](n3cc(C)c(=O)[nH]c3=O)C[C@@H]2O)(c2ccccc2)c2ccc(OC)cc2)cc1
Not estimated accurately	Not estimated accurately	Cc1cn(C/C=C\COC(c2ccccc2)(c2ccccc2)c2ccccc2)c(=O)n(C)c1=O
Not estimated accurately	–	Cc1cn(CC#CCOC(c2ccccc2)(c2ccccc2)c2ccccc2)c(=O)[nH]c1=O
Not estimated accurately	Not estimated accurately	Cc1cn(Cc2ccccc2COC(c2ccccc2)(c2ccccc2)c2ccccc2)c(=O)[nH]c1=O
Not estimated accurately	Not estimated accurately	Cc1cn(C/C=C\COC(c2ccccc2)(c2ccccc2)c2ccccc2)c(=O)nc1N
